Patent publication US20150132328A1 (priority 2011, published 2015)
Like-named read-outs stand apart in the source and are kept apart here.

Columns and labels:
THP-1 cells = tested on: THP-1 cells
Excerpt: We proceeded to perform some related to the proliferative stimulation of the peptide in presence of other divalent cations such as magnesium, copper, and manganese.

newborn rat thymocytes = tested on: newborn rat thymocytes
Excerpt: It was used an octapeptide with similar weight for the elaboration of the complex, to which was just the proline (4) and Glycine (5) original amino acids were interchanged by proline (4) and Glycine (5) resulting as […].

CD4 co-receptor = settings: With-A
Protocol: (§1) The Analysis was performed by flow cytometry, using fluorescence intensity histograms, which allowed us to identify three regions: expression negative, low and high.

CD8 co-receptor = settings: With-A
Protocol: as §1

[1] = tested on: antibodies vs. LR.4 cells; settings: IMMP alone, no tumor
Protocol: This was performed by flow cytometry. LR.4 cells were washed and incubated in serum dilutions obtained from mice, using as second antibody an antibody vs. mouse conjugated to fluoresce.

Peptide LEDGPKFL + Zinc [IMMP]
Concentration at which plateau / maximum response of stimulation is reached (THP-1 cells): 10-10 M
Increase of potency by adding the ion (times) (THP-1 cells): ~500 times
Increase of the potency of the peptide by zinc (times) (THP-1 cells): more than 200 times
EC50 (THP-1 cells; read-out: Effective concentration 50): 0.01 nM
Increase of thymocytes proliferation (newborn rat thymocytes; 10^-10 M, With-A): 35%
Proliferation (% with respect to the control) (newborn rat thymocytes; 10^−6 (918 ng/mL), 24 hours): 106.6 ± 3.0%
Proliferation (% with respect to the control) (newborn rat thymocytes; 10^−6 (918 ng/mL), Con A 50 pg/mL): 126.6 ± 3.0%
Proliferation (% with respect to the control) (newborn rat thymocytes; 10^−7 (91.8 ng/mL), 24 hours): 125.1 ± 2.6 %
Proliferation (% with respect to the control) (newborn rat thymocytes; 10^−7 (91.8 ng/mL), Con A 50 pg/mL): 125.1 ± 2.6 %
Proliferation (% with respect to the control) (newborn rat thymocytes; 10^−7.5 (9.58 ng/mL), Con A 50 pg/mL): 127.4 ± 3.0 %
Proliferation (% with respect to the control) (newborn rat thymocytes; 10^−8 (9.18 ng/mL), 24 hours): 120.3 ± 2.7 %
Proliferation (% with respect to the control) (newborn rat thymocytes; 10^−8 (9.18 ng/mL), Con A 50 pg/mL): 128.3 ± 2.7 %
Proliferation (% with respect to the control) (newborn rat thymocytes; 10^−9 (0.91 ng/mL), 24 hours): 123.3 ± 3.4 %
Proliferation (% with respect to the control) (newborn rat thymocytes; 10^−9 (0.91 ng/mL), Con A 50 pg/mL): 133.3 ± 3.4 %
Proliferation (% with respect to the control) (newborn rat thymocytes; 10^−10 (0.09 ng/mL), 24 hours): 135.6 ± 3.1 %
Proliferation (% with respect to the control) (newborn rat thymocytes; 10^−10 (0.09 ng/mL), Con A 50 pg/mL): 135.6 ± 3.1 %
Proliferation (% with respect to the control) (newborn rat thymocytes; 10^−11 (0.009 ng/mL), 24 hours): 130.5 ± 1.4 %
Proliferation (% with respect to the control) (newborn rat thymocytes; 10^−11 (0.009 ng/mL), Con A 50 pg/mL): 130.5 ± 1.4 %
Proliferation (% with respect to the control) (newborn rat thymocytes; 10^−12 (0.0009 ng/mL), Con A 50 pg/mL): 120.3 ± 3.2 %
Expression Intensity of CD4, Fluorescence, High (CD4 co-receptor; [IMMP] 10^−6 M): 193.0 ± 3.3 arbitrary fluorescence intensity units
Expression Intensity of CD4, Fluorescence, Low (CD4 co-receptor; [IMMP] 10^−6 M): 72.9 ± 7.4 arbitrary fluorescence intensity units
Expression Intensity of CD4, Fluorescence, Negative (CD4 co-receptor; [IMMP] 10^−6 M): 5.0 ± 0.9 arbitrary fluorescence intensity units
Expression Intensity of CD4, Fluorescence, High (CD4 co-receptor; [IMMP] 10^−7 M): 188.4 ± 4.9 arbitrary fluorescence intensity units
Expression Intensity of CD4, Fluorescence, Low (CD4 co-receptor; [IMMP] 10^−7 M): 68.6 ± 8.0 arbitrary fluorescence intensity units
Expression Intensity of CD4, Fluorescence, Negative (CD4 co-receptor; [IMMP] 10^−7 M): 4.5 ± 0.9 arbitrary fluorescence intensity units
Expression Intensity of CD4, Fluorescence, High (CD4 co-receptor; [IMMP] 10^−8 M): 181.1 ± 4.7 arbitrary fluorescence intensity units
Expression Intensity of CD4, Fluorescence, Low (CD4 co-receptor; [IMMP] 10^−8 M): 71.0 ± 6.4 arbitrary fluorescence intensity units
Expression Intensity of CD4, Fluorescence, Negative (CD4 co-receptor; [IMMP] 10^−8 M): 4.7 ± 0.3 arbitrary fluorescence intensity units
Expression Intensity of CD4, Fluorescence, High (CD4 co-receptor; [IMMP] 10^−9 M): 196.1 ± 5.4 arbitrary fluorescence intensity units
Expression Intensity of CD4, Fluorescence, Low (CD4 co-receptor; [IMMP] 10^−9 M): 69.5 ± 5.0 arbitrary fluorescence intensity units
Expression Intensity of CD4, Fluorescence, Negative (CD4 co-receptor; [IMMP] 10^−9 M): 4.5 ± 0.1 arbitrary fluorescence intensity units
Expression Intensity of CD4, Fluorescence, High (CD4 co-receptor; [IMMP] 10^−10 M): 194.1 ± 10.0 arbitrary fluorescence intensity units
Expression Intensity of CD4, Fluorescence, Low (CD4 co-receptor; [IMMP] 10^−10 M): 69.6 ± 5.2 arbitrary fluorescence intensity units
Expression Intensity of CD4, Fluorescence, Negative (CD4 co-receptor; [IMMP] 10^−10 M): 5.0 ± 0.4 arbitrary fluorescence intensity units
Expression Intensity of CD4, Fluorescence, High (CD4 co-receptor; [IMMP] 10^−11 M): 196.1 ± 5.4 arbitrary fluorescence intensity units
Expression Intensity of CD4, Fluorescence, Low (CD4 co-receptor; [IMMP] 10^−11 M): 69.5 ± 7.0 arbitrary fluorescence intensity units
Expression Intensity of CD4, Fluorescence, Negative (CD4 co-receptor; [IMMP] 10^−11 M): 4.5 ± 0.1 arbitrary fluorescence intensity units
Expression Intensity of CD4, Fluorescence, High (CD4 co-receptor; [IMMP] 10^−12 M): 194.1 ± 7.3 arbitrary fluorescence intensity units
Expression Intensity of CD4, Fluorescence, Low (CD4 co-receptor; [IMMP] 10^−12 M): 69.6 ± 7.2 arbitrary fluorescence intensity units
Expression Intensity of CD4, Fluorescence, Negative (CD4 co-receptor; [IMMP] 10^−12 M): 5.0 ± 0.4 arbitrary fluorescence intensity units
Expression Intensity of CD8, Fluorescence, High (CD8 co-receptor; [IMMP] 10^−6 M): 135.9 ± 3.3 arbitrary fluorescence intensity units
Expression Intensity of CD8, Fluorescence, Low (CD8 co-receptor; [IMMP] 10^−6 M): 49.9 ± 37.4 arbitrary fluorescence intensity units
Expression Intensity of CD8, Fluorescence, Negative (CD8 co-receptor; [IMMP] 10^−6 M): 3.1 ± 0.5 arbitrary fluorescence intensity units
Expression Intensity of CD8, Fluorescence, High (CD8 co-receptor; [IMMP] 10^−7 M): 134.5 ± 4.9 arbitrary fluorescence intensity units
Expression Intensity of CD8, Fluorescence, Low (CD8 co-receptor; [IMMP] 10^−7 M): 55.1 ± 4.9 arbitrary fluorescence intensity units
Expression Intensity of CD8, Fluorescence, Negative (CD8 co-receptor; [IMMP] 10^−7 M): 2.4 ± 0.9 arbitrary fluorescence intensity units
Expression Intensity of CD8, Fluorescence, High (CD8 co-receptor; [IMMP] 10^−8 M): 126.1 ± 4.7 arbitrary fluorescence intensity units
Expression Intensity of CD8, Fluorescence, Low (CD8 co-receptor; [IMMP] 10^−8 M): 39.2 ± 5.4 arbitrary fluorescence intensity units
Expression Intensity of CD8, Fluorescence, Negative (CD8 co-receptor; [IMMP] 10^−8 M): 3.2 ± 0.3 arbitrary fluorescence intensity units
Expression Intensity of CD8, Fluorescence, High (CD8 co-receptor; [IMMP] 10^−9 M): 139.8 ± 5.4 arbitrary fluorescence intensity units
Expression Intensity of CD8, Fluorescence, Low (CD8 co-receptor; [IMMP] 10^−9 M): 32.7 ± 5.0 arbitrary fluorescence intensity units
Expression Intensity of CD8, Fluorescence, Negative (CD8 co-receptor; [IMMP] 10^−9 M): 3.2 ± 0.1 arbitrary fluorescence intensity units
Expression Intensity of CD8, Fluorescence, High (CD8 co-receptor; [IMMP] 10^−10 M): 126.5 ± 7.3 arbitrary fluorescence intensity units
Expression Intensity of CD8, Fluorescence, Low (CD8 co-receptor; [IMMP] 10^−10 M): 45.8 ± 3.2 arbitrary fluorescence intensity units
Expression Intensity of CD8, Fluorescence, Negative (CD8 co-receptor; [IMMP] 10^−10 M): 4.1 ± 0.4 arbitrary fluorescence intensity units
Expression Intensity of CD8, Fluorescence, High (CD8 co-receptor; [IMMP] 10^−11 M): 196.1 ± 5.4 arbitrary fluorescence intensity units
Expression Intensity of CD8, Fluorescence, Low (CD8 co-receptor; [IMMP] 10^−11 M): 56.5 ± 4.0 arbitrary fluorescence intensity units
Expression Intensity of CD8, Fluorescence, Negative (CD8 co-receptor; [IMMP] 10^−11 M): 3.5 ± 0.1 arbitrary fluorescence intensity units
Expression Intensity of CD8, Fluorescence, High (CD8 co-receptor; [IMMP] 10^−12 M): 194.1 ± 7.3 arbitrary fluorescence intensity units
Expression Intensity of CD8, Fluorescence, Low (CD8 co-receptor; [IMMP] 10^−12 M): 58.1 ± 3.2 arbitrary fluorescence intensity units
Expression Intensity of CD8, Fluorescence, Negative (CD8 co-receptor; [IMMP] 10^−12 M): 2.0 ± 0.4 arbitrary fluorescence intensity units
% of LR.4 cells stained with the serum antibody ([1]; serum dilution 0): 0%
% of LR.4 cells stained with the serum antibody ([1]; serum dilution 1:2): 0%
% of LR.4 cells stained with the serum antibody ([1]; serum dilution 1:4): 0%
% of LR.4 cells stained with the serum antibody ([1]; serum dilution 1:8): 0%
% of LR.4 cells stained with the serum antibody ([1]; serum dilution 1:16): 0%
% of LR.4 cells stained with the serum antibody ([1]; serum dilution 1:32): 0%
